Experimental data from US20080004272A1, “Compositions and methods for modulating gated ion channels” (PainCeptor Pharma Corporation, priority 2006, published 2008).
Like-named read-outs stand apart in the source and are kept apart here.

Biological target: T1, ASIC1a (Homo sapiens, UniProt P78348)
T1 sequence (P78348 1-528): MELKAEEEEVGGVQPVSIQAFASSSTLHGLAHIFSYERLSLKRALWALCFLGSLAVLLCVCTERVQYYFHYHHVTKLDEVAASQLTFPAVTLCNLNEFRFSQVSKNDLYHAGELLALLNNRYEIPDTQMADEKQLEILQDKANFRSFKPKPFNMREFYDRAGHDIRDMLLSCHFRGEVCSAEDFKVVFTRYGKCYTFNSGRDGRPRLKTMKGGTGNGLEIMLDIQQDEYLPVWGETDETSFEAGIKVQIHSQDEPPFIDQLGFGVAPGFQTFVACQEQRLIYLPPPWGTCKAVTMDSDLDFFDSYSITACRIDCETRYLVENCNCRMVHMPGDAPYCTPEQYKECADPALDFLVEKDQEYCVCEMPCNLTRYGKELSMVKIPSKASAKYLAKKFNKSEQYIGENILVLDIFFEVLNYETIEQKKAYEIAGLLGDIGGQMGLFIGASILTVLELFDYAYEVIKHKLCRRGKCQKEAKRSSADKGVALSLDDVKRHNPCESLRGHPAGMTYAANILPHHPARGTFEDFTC
Assay: Whole cell patch clamp in HEK293 cells transfected with hASIC1a
Format: cell-based
Design: expressed in transfected cells; host or cells: Xenopus laevis oocytes (nuclear microinjection of expression vector such as pcDNA3)
Protocol: Another example of an in vitro assessment method consists of using mammalian heterologous expression systems, which are known to the skilled in the art, and include a variety of mammalian cell lines such as COS, HEK, e.g., HEK293 and/or CHO, cells. Cell lines are transfected with gated ion channel(s) and used to perform electrophysiology as follows:
All experiments are performed at room temperature (20-25° C.) in voltage clamp using conventional whole cell patch clamp methods (Neher, E., et al. (1978) Pfluegers Arch 375:219-228).
The amplifier used is the EPC-9 (HEKA-electronics, Lambrect, Germany) run by a Macintosh G3 computer via an ITC-16 interface. Experimental conditions are set with the Pulse-software accompanying the amplifier. […]
Coverslips with the cells are transferred to a 15 μl experimental chamber mounted on the stage of an inverted microscope (IMT-2, Olympus) supplied with Nomarski optics. […] The cells are held at a holding voltage of −60 mV and at the start of each experiment the current is continuously measured for 45 s to ensure a stable baseline. […] Current amplitudes are measured at the peak of the responses, and effect of the compounds is calculated as the amplitude at compound equilibrium divided by the amplitude of the current evoked by the pulse just before the compound is included. […]

Compound: CN1CCc2c(-c3ccccc3)cc(C#N)c(N)c2C1 [Compound 203, 8-Amino-2-methyl-5-phenyl-1,2,3,4-tetrahydro-isoquinoline-7-carbonitrile]
- IC50: 7.5 µM

Compound: COc1ccc(F)cc1-c1cc(C#N)c(N)c2c1CCN(C)C2 [Compound 206, 8-Amino-5-(5-fluoro-2-methoxy-phenyl)-2-methyl-1,2,3,4-tetrahydro-isoquinoline-7-carbonitrile]
- IC50 (HEK293 cells, whole cell patch clamp, six point dose-response, read-out: IC50, inhibition of acid-induced hASIC1a activity): 28 µM
